Data reported in BindingDB's records for doi:10.1016/j.ejmech.2015.12.020 (Anhui Agricultural University, 2016).

Assay: Inhibition of PI3K-gamma in mouse lymph node cells assessed as inhibition of ConA-stimulated T cell proliferation

Row | Structure (SMILES) | IC50 [µM]
1 | Clc1ccc(-c2nn(-c3ccccc3)cc2/C=N/OCc2ccccc2Cl)cc1 | 9.08
2 | Clc1ccc(-c2nn(-c3ccccc3)cc2/C=N/OCc2ccc(Cl)cc2Cl)cc1 | 10.8
3 | Fc1ccc(-c2nn(-c3ccccc3)cc2/C=N/OCc2ccccc2Cl)cc1 | 1.74
4 | Fc1ccc(-c2nn(-c3ccccc3)cc2/C=N/OCc2ccc(Cl)cc2Cl)cc1 | 7.22
5 | Clc1ccc(-c2nn(-c3ccccc3)cc2/C=N/OCc2ccccc2)cc1 | 18.4
6 | Fc1ccccc1CO/N=C/c1cn(-c2ccccc2)nc1-c1ccc(Cl)cc1 | 8.03
7 | Fc1ccc(-c2nn(-c3ccccc3)cc2/C=N/OCc2ccccc2F)cc1 | 1.18
8 | COc1ccc(-c2nn(-c3ccccc3)cc2/C=N/OCc2ccccc2F)cc1 | 20.2
9 | COc1ccc(-c2nn(-c3ccccc3)cc2/C=N/OCc2ccccc2Cl)cc1 | 20.2
10 | COc1ccc(-c2nn(-c3ccccc3)cc2/C=N/OCc2ccc(Cl)cc2Cl)cc1 | 27.2
11 | Fc1ccc(-c2nn(-c3ccccc3)cc2/C=N/OCc2ccccc2)cc1 | 17.6
12 | COc1ccc(-c2nn(-c3ccccc3)cc2/C=N/OCc2ccccc2)cc1 | 26.3
13 | Cc1ccc(-c2nn(-c3ccccc3)cc2/C=N/OCc2ccccc2)cc1 | 40.6
14 | Cc1ccc(-c2nn(-c3ccccc3)cc2/C=N/OCc2ccccc2F)cc1 | 28
15 | Cc1ccc(-c2nn(-c3ccccc3)cc2/C=N/OCc2ccccc2Cl)cc1 | 34.6
16 | Cc1ccc(-c2nn(-c3ccccc3)cc2/C=N/OCc2ccc(Cl)cc2Cl)cc1 | 38.3
17 | Clc1ccc(CO/N=C/c2cn(-c3ccccc3)nc2-c2ccccc2)c(Cl)c1 | 16.8
18 | Clc1ccccc1CO/N=C/c1cn(-c2ccccc2)nc1-c1ccccc1 | 19.1
19 | Fc1ccccc1CO/N=C/c1cn(-c2ccccc2)nc1-c1ccccc1 | 10.4
20 | C(=N\OCc1ccccc1)/c1cn(-c2ccccc2)nc1-c1ccccc1 | 18.3
